Results reported in patent publication US7390797B2, “Fused indazole compounds” (Eisai Co., Ltd., priority 2002, dated 2008).

Biological target: T1, Human JNK 3 (Homo sapiens, UniProt P53779)
T1 construct: made in house; host or cells: Escherichia coli
Test: Determination of JNK 3 Inhibition
Type: biochemical
Settings: GST-JNK 3 enzyme, GST-c-Jun (1-169) substrate, [γ-33P]ATP, 3.33 μM ATP, 30 minutes, SPA beads
Protocol: Test Example 1 Determination of JNK 3 Inhibition
Human JNK 3 was expressed as a fusion protein (GST-JNK 3) with glutathione S-transferase (GST) in Escherichia coli and was purified using glutathione Sepharose 4B beads. The amino acid sequence 1-169 of c-Jun was […] as a fusion protein (GST-c-Jun) with GST in Escherichia coli, was purified using glutathione Sepharose 4B beads and was used as a substrate. A test compound was diluted with 100% dimethyl sulfoxide into 10 mM and was then further diluted with 10% aqueous dimethyl sulfoxide solution to yield a dilution series. To each well of 96-well OPTI plate (available from Packard) were placed 20 μl of the diluted compound, 30 μl of a substrate solution (1.2 μg of GST-c-Jun, […], 0.2 μCi of [γ-^33P]ATP, 25 mM of HEPES pH=7.5, 10 mM of magnesium acetate, and 3.33 μM of ATP), and 50 μl of an enzyme solution (0.04 μg of GST-JNK 3, 25 mM of HEPES pH=7.5, and 10 mM magnesium acetate) up to 100 μl, and the mixture was allowed to react for 30 minutes. After terminating the reaction by adding 100 μl of a reaction terminator (80 mM ATP, 5 mg/ml glutathione SPA beads (available from Amersham Pharmacia Biotech)), the reaction mixture was shaken for 30 minutes. The mixture was centrifuged at room temperature at 1000×g for 5 minutes, and the emission intensity thereof was determined on a TopCount™ illuminator (available from Packard). The activity is expressed by the 50% inhibitory concentration on the enzymatic activity of JNK, i.e., IC50 (nM).

T1 sequence (P53779 whole entry): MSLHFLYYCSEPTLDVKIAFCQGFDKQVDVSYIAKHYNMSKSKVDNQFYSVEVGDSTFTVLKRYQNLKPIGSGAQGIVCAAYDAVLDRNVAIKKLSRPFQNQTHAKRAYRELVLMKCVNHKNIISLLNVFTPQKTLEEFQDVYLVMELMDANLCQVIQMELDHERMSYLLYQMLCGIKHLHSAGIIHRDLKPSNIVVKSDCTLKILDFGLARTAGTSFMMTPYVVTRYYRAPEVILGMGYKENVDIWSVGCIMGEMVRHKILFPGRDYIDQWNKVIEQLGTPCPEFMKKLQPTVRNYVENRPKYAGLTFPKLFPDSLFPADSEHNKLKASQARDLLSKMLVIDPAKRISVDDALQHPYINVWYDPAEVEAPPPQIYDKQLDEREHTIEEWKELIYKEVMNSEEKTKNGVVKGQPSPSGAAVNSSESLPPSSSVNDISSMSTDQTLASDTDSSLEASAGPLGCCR

| Compound | IC50 [nM] |
| --- | --- |
| Nc1cccc2c1CCc1cccc3[nH]nc-2c13 [Example 8, 6,7-Dihydro-2H-benzo[6,7]cyclohepta[cd]indazole-8-amine] | ≤ 300 |
| OCc1cccc2c1C=Cc1cccc3[nH]nc-2c13 [Example 6, 2H-Benzo[6,7]cyclohepta[cd]indazol-8-ylmethanol] | ≤ 300 |
| O=C(NC1CC1)c1cccc2c1C=Cc1cccc3[nH]nc-2c13 [Example 21, N8-Cyclopropyl-2H-benzo[6,7]cyclohepta[cd]indazole-8-carboxamide] | ≤ 300 |
| Cc1ccc2[nH]nc3c2c1NC(=O)c1ccccc1-3 [Example 25, 5-Methyl-6,7-dihydro-2H-benzo[5,6]azepino[4,3,2-cd]indazol-7-one] | ≤ 300 |

Continued, values first:

| IC50 [nM] | Compound |
| --- | --- |
| ≤ 300 | Cc1cc(Br)c2[nH]nc3c2c1NC(=O)c1ccccc1-3 [Example 26, 3-Bromo-5-methyl-6,7-dihydro-2H-benzo[5,6]azepino[4,3,2-cd]indazol-7-one] |
| ≤ 300 | O=C(NCc1ccco1)c1cccc2c1C=Cc1cccc3[nH]nc-2c13 [Example 20, N8-(2-Furylmethyl)-2H-benzo[6,7]cyclohepta[cd]indazole-8-carboxamide] |
| ≤ 300 | C1=Cc2cccc3[nH]nc(c23)-c2ccccc21 [Example 9, 2H-Benzo[6,7]cyclohepta[cd]indazole] |
| ≤ 300 | OCc1cccc2c1CCc1cccc3[nH]nc-2c13 [Example 1, 6,7-Dihydro-2H-benzo[6,7]cyclohepta[cd]indazol-8-ylmethanol] |
